Measured values published in patent publication US5648336A (University of Colorado, priority 1994, dated 1997).
Read-outs that look alike come from different tables or passages of the source.

How the values were obtained:
B1 receptors [1] = target: T1, B1 receptors (Canis lupus familiaris, UniProt Q9BDQ5); test: Dog blood pressure, hypotensive response to des-Arg9-BK; type: in vivo; details: anaesthetized dog, i.v. infusion, des-Arg9-BK challenge, n=3
T1 construct: Mongrel dogs of either sex, weight range 10-15 kg were used; from tissue; host or cells: anaesthetized mongrel dog, whole animal
T1 sequence (Q9BDQ5 1-350): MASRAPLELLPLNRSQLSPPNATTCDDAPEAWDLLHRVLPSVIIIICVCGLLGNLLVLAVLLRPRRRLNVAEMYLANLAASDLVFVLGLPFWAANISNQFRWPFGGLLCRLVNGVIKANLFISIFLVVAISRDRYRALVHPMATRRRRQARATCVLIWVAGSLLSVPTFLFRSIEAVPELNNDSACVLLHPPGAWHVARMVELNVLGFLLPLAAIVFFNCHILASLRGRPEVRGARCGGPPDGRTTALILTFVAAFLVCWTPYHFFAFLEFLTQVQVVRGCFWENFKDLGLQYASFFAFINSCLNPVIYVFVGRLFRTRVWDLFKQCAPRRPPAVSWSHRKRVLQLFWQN

B2 receptors = B2 receptors (Canis lupus familiaris, UniProt Q9BDQ4); details: anaesthetized dog, i.v. infusion, BK challenge, n=3
Experimental: Mongrel dogs of either sex, weight range 10-15 kg were used. These were anaesthetized with pentobarbital, 30 mg/kg i.v., and catheters were placed in one femoral artery and both femoral veins for the recording of blood pressure and infusion and injection of compounds.

B1 receptors [2] = target: T2, B1 receptors (Oryctolagus cuniculus, UniProt P48748); test: B1 receptor bioassay, rabbit aorta strips contracted with des-Arg9-BK; type: cell-based; details: 50% reduction of sustained contraction to 10^-7 M des-Arg9-BK; read-out: Rabbit Aorta p IC50 B1 receptors (converted)
T2 construct: The thorax was opened and the thoracic aorta carefully removed; from tissue; host or cells: rabbit thoracic aorta spiral strips
T2 sequence (P48748 1-352): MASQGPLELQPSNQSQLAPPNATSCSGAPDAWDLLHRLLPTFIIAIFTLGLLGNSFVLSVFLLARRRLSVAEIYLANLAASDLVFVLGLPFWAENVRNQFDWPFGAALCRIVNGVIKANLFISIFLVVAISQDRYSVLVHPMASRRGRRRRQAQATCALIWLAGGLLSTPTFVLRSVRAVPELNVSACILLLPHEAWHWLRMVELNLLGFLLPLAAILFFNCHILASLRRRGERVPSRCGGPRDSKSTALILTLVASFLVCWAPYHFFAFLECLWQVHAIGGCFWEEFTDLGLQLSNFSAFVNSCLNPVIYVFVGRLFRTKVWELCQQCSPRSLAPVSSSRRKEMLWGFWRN
Experimental: Male New Zealand white rabbits, weight range 2-3 kg, were killed by an overdose of pentobarbital i.v. The thorax was opened and the thoracic aorta carefully removed. […] The tissues were placed under 1 gm isometric tension and allowed to equilibrate for 1H. At time 1h, a concentration-effect curve was constructed to the selective B1 agonist des-Arg^9 -BK. This was repeated at time 3 hours. […] Once the contraction was sustained, the compound to be assayed was applied to the tissue bath in a cumulative manner. The concentration of the compound which produced a 50% reduction of the sustained contraction was calculated. The negative logarithm of this concentration was calculated and expressed as the […].

guinea pig ileum = tested on: guinea pig ileum
Description: (§1) A change of one unit of pA2 value represents an order of magnitude change in potency.
(§2) On isolated smooth muscles, agonist potency is given as percent of BK potency; antagonist potency is given as pA2, and is underlined. In blood pressure assays, the number is the dose of peptide in micrograms that causes 50% reduction in the effect of BK intraarterially administered as a bolus mixture in a 500 g male rat; Ag indicates unquantitated agonist activity; Ant indicates unquantitated antagonist activity.

isolated rat uterus = tested on: isolated rat uterus
Description: as §1, §2

[3] = tested on: hypotensive action of bradykinin; test: Blood pressure in the anesthetized rat: inhibition of hypotensive action of bradykinin; type: in vivo; details: intraarterial bolus mixture with BK, 500 g male rat; indicated approximately
Description: Potencies for the antagonists in this assay are not reported precisely, but rather are indicated approximately.
as §2

Human B2 receptors = target: T3, Human B2 receptors (Homo sapiens, UniProt P30411); test: Human B2 binding, cloned receptor in CHO cell membranes, 3H-bradykinin; details: CHO clone S34f membranes, 0.3 nM 3H-Bradykinin, room temperature 45 min; read-out: Human Receptor Clone B2 receptor binding (Ki) (converted)
T3 construct: expressed in transfected cells; membranes used
T3 sequence (P30411 1-364 isoform P30411-2): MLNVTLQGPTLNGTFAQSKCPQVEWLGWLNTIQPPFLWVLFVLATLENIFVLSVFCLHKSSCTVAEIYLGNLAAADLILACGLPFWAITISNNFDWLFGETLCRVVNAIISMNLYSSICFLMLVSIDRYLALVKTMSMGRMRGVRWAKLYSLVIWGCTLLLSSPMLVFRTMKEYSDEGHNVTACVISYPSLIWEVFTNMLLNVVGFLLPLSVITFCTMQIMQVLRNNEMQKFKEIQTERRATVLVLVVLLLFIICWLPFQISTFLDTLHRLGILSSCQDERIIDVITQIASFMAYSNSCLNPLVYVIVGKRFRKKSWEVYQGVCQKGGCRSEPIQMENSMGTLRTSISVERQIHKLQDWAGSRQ
Description: Human B2 receptors were cloned and expressed in Chinese hamster ovary cells. RNA was isolated from human lung fibroblasts (CCD-16 LU obtained from the ATCC) using the method of Chirgwin et al (Biochemistry 18:5294 (1979)). The RNA was transcribed into cDNA using MMLV reverse transcriptase, the primer […] and the procedure of Maniatis (Molecular Cloning Cold Spring Harbor Laboratory (1982)). The human B2 receptor cDNA was selectively amplified using nested PCR. The first round PCR used the two primers […] and […] and Taq DNA polymerase (Promega). Twenty-five rounds of PCR were done using the following conditions: 94° C., 1 minute for denaturation, 50° C., 1 minute for annealing followed by 72° C., 3 minutes for extension. Excess primers were removed with a Centricon 30 miniconcentrator. A portion of this first round reaction was used as a template in a second round of PCR using the following primers […] and […]. The number of rounds of PCR and the conditions were the same as those used for the first round. The DNA obtained after this second round was digested with the restriction enzymes Hind III and Xba I using standard methodology. Cesium chloride-purified pRc/CMV (Invitrogen) was also digested with Hind III and Xba I using standard methodology. The products of the two digests were resolved on a 1% low melt agarose gel. The human B2 receptor DNA (approximately 1.1 kb) and the pRc/CMV DNA (approximately 5.5 kb) were excised from the gel. The gel slices containing these DNAs were heated at 65° C. and aliquots combined in a reaction containing T4 DNA ligase. The reaction was incubated overnight at 15° C.
An aliquot of this reaction was used to transform frozen competent E. coli DH5α cells (GibcoBRL). Transformants containing the human B2 receptor DNA were selected on LB+amp plates. One of the transformants was selected and the sequence of the human B2 receptor DNA insert determined using the Sequenase enzyme (United States Biochemical) according to the manufacturer's instructions. This sequence was compared to the sequence of Hess et al (Biochemical and Biophysical Research Communications 184:260 1992)). […] The human BK2 receptor-pRc/CMV plasmid was transfected into CHO-k1 cells using the Lipofectamine reagent (GibcoBRL).
Cells containing the receptor were grown to confluence and harvested by scraping into PBS and homogenized. Membranes were prepared by centrifugation in 25 mM TES pH6.8 containing 1 mM 1.10 Phenanthroline. The final pellet was resuspended in assay buffer (25 mM TES, 1 mM 1.10 Phenanthroline, 1 mM DTT, […] Captopril, 0.1% BSA pH=6.8) and frozen. […] Incubation was carried out at room temperature for 45 min. The assay was terminated by filtration through a polyethylenimine soaked G-A filter. Radioactivity was measured on a Wallac 1450 MicroBeta LSC.
The Kd for the receptor was determined by kinetic analysis of on and off rates utilizing a single exponential decay off rate. Ki 's for compounds were calculated using the following equation: Ki =IC50 /(1+[L]/Kd), where L=free ligand concentration.

[4] = guinea pig ileum, vs double ED50 dose of bradykinin

B2 receptors, sequence (Q9BDQ4 1-392): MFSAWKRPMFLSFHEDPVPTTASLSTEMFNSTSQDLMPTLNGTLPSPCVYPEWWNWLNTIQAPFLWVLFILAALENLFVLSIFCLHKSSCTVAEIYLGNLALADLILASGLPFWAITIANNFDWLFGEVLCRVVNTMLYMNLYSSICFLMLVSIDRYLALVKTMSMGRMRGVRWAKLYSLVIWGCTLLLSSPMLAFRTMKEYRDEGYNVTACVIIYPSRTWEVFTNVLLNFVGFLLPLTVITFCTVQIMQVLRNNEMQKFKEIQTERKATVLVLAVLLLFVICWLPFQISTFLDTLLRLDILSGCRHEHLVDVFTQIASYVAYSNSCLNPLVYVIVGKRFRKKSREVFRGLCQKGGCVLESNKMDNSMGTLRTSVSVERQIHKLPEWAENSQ

Molecule | Mean ED50, B1 receptor-mediated hypotensive response (B1 receptors [1]) | Mean ED50, B2 receptor-mediated hypotensive response (B2 receptors) | IC50 (B1 receptors [2]) | Ileum Activity, antagonist potency given as pA2 (guinea pig ileum) | Uterus Activity, antagonist potency given as pA2 (isolated rat uterus) | Blood Pressure: dose of peptide that causes 50% reduction in the effect of BK [3] | Ileum Activity, antagonist potency given as pA2 (guinea pig ileum; [4]) | Uterus Activity, agonist potency given as percent of BK potency (isolated rat uterus; isolated rat uterus) | Ki (Human B2 receptors)
N=C(N)NCCC[C@@H](N)C(=O)N[C@@H](CCCNC(=N)N)C(=O)N1CCC[C@H]1C(=O)N1C[C@H](O)C[C@H]1C(=O)NCC(=O)N[C@@H](Cc1cccs1)C(=O)N[C@@H](CO)C(=O)N[C@@H](C(=O)N1[C@H](C(=O)N[C@@H](CCCNC(=N)N)C(=O)O)C[C@@H]2CCCC[C@@H]21)C1Cc2ccccc2C1 [Compound 7, DArg-Arg-Pro-Hyp-Gly-Thi-Ser-DIglb-Oic-Arg] | 0.35 mg/kg/min | 0.17 mg/kg/min | 141 nM | 7.4 | – | – | – | – | –
N=C(N)NCCC[C@@H](N)C(=O)N[C@@H](CCCNC(=N)N)C(=O)N1CCC[C@H]1C(=O)N1C[C@H](O)C[C@H]1C(=O)NCC(=O)N[C@H](C(=O)N[C@@H](CO)C(=O)N[C@@H](C(=O)N1[C@H](C(=O)N[C@@H](CCCNC(=N)N)C(=O)O)C[C@@H]2CCCC[C@@H]21)C1Cc2ccccc2C1)C1Cc2ccccc2C1 [Compound 1, DArg-Arg-Pro-Hyp-Gly-Iglb-Ser-DIglb-O ic-Arg] | 0.24 mg/kg/min | 0.03 mg/kg/min | 251 nM | 7.9 | 8.5 | – | – | – | –
N=C(N)NCCC[C@@H](N)C(=O)N[C@@H](CCCNC(=N)N)C(=O)N1CCC[C@H]1C(=O)N1C[C@H](O)C[C@H]1C(=O)NCC(=O)N[C@@H](Cc1cccs1)C(=O)N[C@@H](CO)C(=O)N[C@@H](C(=O)N(CC(=O)N[C@@H](CCCNC(=N)N)C(=O)O)C1Cc2ccccc2C1)C1Cc2ccccc2C1 [Compound 28, DArg-Arg-Pro-Hyp-Gly-Thi-Ser-DIgl-Nigb-Arg] | – | – | – | – | – | 0.05 micrograms | 6.5 | 48.6% | –
DArg-Arg-Pro-Hyp-Gly-Thi-Ser-DIglb-Dic-Arg [Compound 41] | – | – | – | – | – | 50 micrograms | – | – | –
Cc1ccc(C[C@@H](NC(=O)CNC(=O)[C@@H]2C[C@@H](O)CN2C(=O)[C@@H]2CCCN2C(=O)[C@H](CCCNC(=N)N)NC(=O)[C@H](N)CCCNC(=N)N)C(=O)N[C@@H](CO)C(=O)N[C@@H](C(=O)N2[C@H](C(=O)N[C@@H](CCCNC(=N)N)C(=O)O)C[C@@H]3CCCC[C@@H]32)C2Cc3ccccc3C2)c(C)c1 [Compound 27, DArg-Arg-Pro-Hyp-Gly-DDMF-Ser-DIglb-Oic-Arg] | – | – | > 10000 nM | 6.9 | 8.0 | – | – | – | 0.178 nM
N=C(N)NCCC[C@H](NC(=O)[C@@H]1C[C@@H]2CCCC[C@@H]2N1C(=O)[C@H](NC(=O)[C@H](CO)NC(=O)[C@@H](NC(=O)CNC(=O)[C@@H]1C[C@@H](O)CN1C(=O)[C@@H]1CCCN1C(=O)[C@H](CCCNC(=N)N)NC(=O)[C@@H](CCCNC(=N)N)NC(=O)C12CC3CC(CC(C3)C1)C2)C1Cc2ccccc2C1)C1Cc2ccccc2C1)C(=O)O [Compound 2, Aca-DArg-Arg-Pro-Hyp-Gly-Iglb-Ser-DIg lb-Oic-Arg] | – | – | 1780 nM | 7.8 | 7.5 | – | – | – | 0.0447 nM
Aca-DArg-Arg-Pro-Hyp-Gly-Thi-Ser-DHigb-Oic-Arg [Compound 124] | – | – | – | – | – | 0 micrograms | 7.7 | – | –
N=C(N)NCCC[C@H](NC(=O)[C@@H]1C[C@@H]2CCCC[C@@H]2N1C(=O)[C@H](NC(=O)[C@H](CO)NC(=O)[C@H](Cc1cccs1)NC(=O)CNC(=O)[C@@H]1C[C@@H](O)CN1C(=O)[C@@H]1CCCN1C(=O)[C@H](CCCNC(=N)N)NC(=O)[C@@H](CCCNC(=N)N)NC(=O)CC12CC3CC(CC(C3)C1)C2)C1Cc2ccccc2C1)C(=O)O [Compound 56, Aaa-DArg-Arg-Pro-Hyp-Gly-Thi-Ser-DIglb-Oic-Arg] | – | – | 692 nM | 7.8 | 7.7 | – | – | – | 0.398 nM
